Measured values reported in article PMC5691136, “The role of CXCR3/LRP1 cross-talk in the invasion of primary brain tumors” (Nature Communications, 2017).

Molecular target: T1, CXCR3-A (Homo sapiens, UniProt P49682)
T1 construct: full-length human CXCR3-A (isoform A) in membrane fragments of transfected U87 and HEK-293 cells
T1 sequence (P49682 1-368): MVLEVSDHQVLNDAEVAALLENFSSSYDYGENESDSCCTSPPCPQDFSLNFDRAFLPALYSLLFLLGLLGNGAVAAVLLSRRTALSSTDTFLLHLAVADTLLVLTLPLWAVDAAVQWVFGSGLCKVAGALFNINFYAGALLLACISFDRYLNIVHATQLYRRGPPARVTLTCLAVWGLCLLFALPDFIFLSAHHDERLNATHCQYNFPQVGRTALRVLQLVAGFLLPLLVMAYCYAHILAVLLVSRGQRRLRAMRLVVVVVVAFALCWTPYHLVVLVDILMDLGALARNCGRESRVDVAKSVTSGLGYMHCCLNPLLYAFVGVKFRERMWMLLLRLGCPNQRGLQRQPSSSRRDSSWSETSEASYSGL
Assay: plasmon waveguide resonance on captured cell membrane fragments; no spectral change with U87-CTRL fragments
Type: binding

In the case of NC(N)=NCCC[C@H](NC(=O)[C@@H]1Cc2ccccc2CN1C(=O)CCC(=O)c1ccccc1)C(=O)NCC1CCCCC1 [PS372424], the Kd is reported as 36 ± 9 nM.
